Consider one molecule from article PMC6466480 (Journal of Medicinal Chemistry, 2019).

Structures are written as SMILES.

The test system of assay [1] is D4R. The settings on record: initially characterized as a full agonist; cited from earlier work.
Assay [2] concerns the target T1, human D4R (Homo sapiens, UniProt P21917).
T1 sequence (P21917 1-419): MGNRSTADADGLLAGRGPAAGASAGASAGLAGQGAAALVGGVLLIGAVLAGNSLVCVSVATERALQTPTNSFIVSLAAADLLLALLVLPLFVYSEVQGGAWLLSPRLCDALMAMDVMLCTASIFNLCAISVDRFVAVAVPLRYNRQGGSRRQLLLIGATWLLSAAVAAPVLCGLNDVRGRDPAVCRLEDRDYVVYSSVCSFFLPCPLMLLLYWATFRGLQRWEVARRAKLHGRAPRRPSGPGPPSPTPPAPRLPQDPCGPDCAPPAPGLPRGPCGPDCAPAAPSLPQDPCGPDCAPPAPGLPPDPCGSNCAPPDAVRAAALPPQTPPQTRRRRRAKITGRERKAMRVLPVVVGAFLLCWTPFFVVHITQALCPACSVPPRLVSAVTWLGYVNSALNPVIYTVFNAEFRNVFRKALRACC
Briefly: cAMP inhibition assay. Format: cell-based. The settings on record: read-out: Emax at D4R (partial agonist).

Assay [3] deals with human D3R (Homo sapiens, UniProt P35462). Briefly: β-Arrestin recruitment assay. The assay is classed as cell-based. The settings on record: agonist mode; percentage of the maximum dopamine response; CHO-K1. In general terms: Activated receptors often draw arrestin, which recruitment assays turn into a signal.
human D3R, sequence (P35462 whole entry): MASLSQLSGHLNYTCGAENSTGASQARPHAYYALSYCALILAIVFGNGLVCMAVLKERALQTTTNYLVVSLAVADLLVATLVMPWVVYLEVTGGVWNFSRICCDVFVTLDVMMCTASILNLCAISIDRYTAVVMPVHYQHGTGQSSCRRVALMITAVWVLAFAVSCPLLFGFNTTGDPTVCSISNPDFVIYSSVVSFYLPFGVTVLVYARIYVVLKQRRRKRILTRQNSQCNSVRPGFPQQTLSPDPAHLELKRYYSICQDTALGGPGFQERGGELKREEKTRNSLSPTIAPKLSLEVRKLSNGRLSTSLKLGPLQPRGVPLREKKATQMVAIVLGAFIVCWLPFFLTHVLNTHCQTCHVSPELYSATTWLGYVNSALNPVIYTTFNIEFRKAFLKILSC

On to `Cc1cccc(NC(=O)CN2CCC(c3ccccn3)CC2)c1` [Compound 1, 2-(4-(pyridin-2-yl)piperidin-1-yl)-N-(m-tolyl)acetamide], for which the “intrinsic activity at D4R” value in assay [1] is given as 83%. Further, the Emax (usually the maximal effect, on the per cent scale that the assay sets) in assay [2] lay within 23 to 62%. Also, the “D3R efficacy β-arr Emax” value in assay [3] was “very low potency and efficacy”.
